From the supplement of paper PMC4932681

Tests used:
ZR-75-1 Tam2 [1] = assay: drug sensitivity score (DSS) (DSS (dimensionless)); higher = more sensitive; extreme values may be limits of the assay; details: 4-OH-tamoxifen in medium 1 µM; 72 h
Method in brief: (§1)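 Breast cancer cell lines and their resistant derivatives were seeded into 384-well plates holding FO2Baq library drugs at five concentrations spanning a 10 000-fold range. Resistant lines were in medium with 1 μM of the selecting drug. Cells were incubated 72 h at 37 °C, and CellTiter-Glo viability was read on a PHERAstar and normalised to vehicle-only and positive controls. Drug sensitivity score, relative IC50 (curve midpoint) and top-dose inhibition came from logistic dose–response fits (Breeze pipeline).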

BT-474 [2] = assay: as above; details: 72 h
Method in brief: as §1

MCF-7 Tam1 [3] = assay: as above; details: 4-OH-tamoxifen in medium 1 µM; 72 h
Method in brief: as §1

ZR-75-1 [4] = assay: as above; details: 72 h
Method in brief: as §1

T-47D Tam1 [5] = assay: as above; details: 4-OH-tamoxifen in medium 1 µM; 72 h
Method in brief: as §1

ZR-75-1 Tam1 [6] = assay: as above; details: 4-OH-tamoxifen in medium 1 µM; 72 h
Method in brief: as §1

BT-474 Tam2 [7] = assay: as above; details: 4-OH-tamoxifen in medium 1 µM; 72 h
Method in brief: as §1

T-47D Tam2 [8] = assay: as above; details: 4-OH-tamoxifen in medium 1 µM; 72 h
Method in brief: as §1

BT-474 Tam1 [9] = assay: as above; details: 4-OH-tamoxifen in medium 1 µM; 72 h
Method in brief: as §1

MCF-7 [10] = assay: as above; details: 72 h
Method in brief: as §1

T-47D [11] = assay: as above; details: 72 h
Method in brief: as §1

ZR-75-1 Tam2 [12] = assay: relative IC50 (midpoint of fitted logistic curve, plateau may be below 50% inhibition; CellTiter-Glo viability); higher = less potent; details: 4-OH-tamoxifen in medium 1 µM; 72 h
Method in brief: as §1

BT-474 [13] = assay: as above; details: 72 h
Method in brief: as §1

MCF-7 Tam1 [14] = assay: as above; details: 4-OH-tamoxifen in medium 1 µM; 72 h
Method in brief: as §1

ZR-75-1 [15] = assay: as above; details: 72 h
Method in brief: as §1

T-47D Tam1 [16] = assay: as above; details: 4-OH-tamoxifen in medium 1 µM; 72 h
Method in brief: as §1

ZR-75-1 Tam1 [17] = assay: as above; details: 4-OH-tamoxifen in medium 1 µM; 72 h
Method in brief: as §1

T-47D Tam2 [18] = assay: as above; details: 4-OH-tamoxifen in medium 1 µM; 72 h
Method in brief: as §1

BT-474 Tam1 [19] = assay: as above; details: 4-OH-tamoxifen in medium 1 µM; 72 h
Method in brief: as §1

T-47D [20] = assay: as above; details: 72 h
Method in brief: as §1

MCF-7 [21] = assay: as above; details: 72 h
Method in brief: as §1

BT-474 Tam2 [22] = assay: as above; details: 4-OH-tamoxifen in medium 1 µM; 72 h
Method in brief: as §1

SMILES | relative IC50 (BT-474 [13]; 4-OH-tamoxifen in medium 0 µM) [µM] | relative IC50 (MCF-7 Tam1 [14]) [µM] | relative IC50 (T-47D Tam1 [16]) [µM] | relative IC50 (T-47D Tam2 [18]) [µM] | relative IC50 (BT-474 Tam1 [19]) [µM] | relative IC50 (T-47D [20]; 4-OH-tamoxifen in medium 0 µM) [µM] | relative IC50 (T-47D [20]; 4-OH-tamoxifen in medium 1 µM) [µM] | relative IC50 (BT-474 [13]; 4-OH-tamoxifen in medium 1 µM) [µM] | relative IC50 (MCF-7 [21]; 4-OH-tamoxifen in medium 0 µM) [µM] | relative IC50 (MCF-7 [21]; 4-OH-tamoxifen in medium 1 µM) [µM] | relative IC50 (BT-474 Tam2 [22]) [µM] | drug sensitivity score (ZR-75-1 Tam2 [1]) | drug sensitivity score (BT-474 [2]; 4-OH-tamoxifen in medium 0 µM) | drug sensitivity score (BT-474 [2]; 4-OH-tamoxifen in medium 1 µM) | drug sensitivity score (MCF-7 Tam1 [3]) | drug sensitivity score (ZR-75-1 [4]; 4-OH-tamoxifen in medium 0 µM) | drug sensitivity score (ZR-75-1 [4]; 4-OH-tamoxifen in medium 1 µM) | drug sensitivity score (T-47D Tam1 [5]) | drug sensitivity score (ZR-75-1 Tam1 [6]) | drug sensitivity score (BT-474 Tam2 [7]) | drug sensitivity score (T-47D Tam2 [8]) | drug sensitivity score (BT-474 Tam1 [9]) | drug sensitivity score (MCF-7 [10]; 4-OH-tamoxifen in medium 0 µM) | drug sensitivity score (MCF-7 [10]; 4-OH-tamoxifen in medium 1 µM) | drug sensitivity score (T-47D [11]; 4-OH-tamoxifen in medium 0 µM) | drug sensitivity score (T-47D [11]; 4-OH-tamoxifen in medium 1 µM) | relative IC50 (ZR-75-1 Tam2 [12]) [µM] | relative IC50 (ZR-75-1 [15]; 4-OH-tamoxifen in medium 0 µM) [µM] | relative IC50 (ZR-75-1 [15]; 4-OH-tamoxifen in medium 1 µM) [µM] | relative IC50 (ZR-75-1 Tam1 [17]) [µM]
Oc1ccc2c(c1)CC[C@H](c1ccccc1)[C@@H]2c1ccc(OCCN2CCCC2)cc1 [Lasofoxifene] | > 1 | > 1 | > 1 | > 1 | 0.449 | > 1 | > 1 | – | – | – | – | 0 | 0 | 0.881 | 0 | 0 | 0 | 0 | 0 | 0.434 | 0 | 1.01 | 1.49 | 0.854 | 0 | 0 | > 1 | > 1 | > 1 | > 1
N#CCNC(=O)c1ccc(-c2ccnc(Nc3ccc(N4CCOCC4)cc3)n2)cc1 [Momelotinib (CYT-387)] | > 10 | 2.03 | 0.346 | 4.18 | 5.2 | – | > 10 | > 10 | 4.2 | 2.52 | – | 0 | 0 | 0 | 3.23 | 0 | 0.68 | 5.08 | 0 | 0.414 | 1.42 | 1.15 | 1.83 | 4.64 | 0.52 | 0 | – | > 10 | – | > 10
COCC1(CO)C(=O)C2CCN1CC2 (centres undefined) [Prima-1 Met] | > 10 | > 10 | > 10 | > 10 | > 10 | > 10 | > 10 | > 10 | – | > 10 | > 10 | 0.24 | 0 | 0 | 0 | 0 | 0 | 0 | 0 | 0 | 0 | 0 | 0.0674 | 0 | 0 | 0 | – | > 10 | > 10 | > 10
CNC(=O)c1ccc(N2C(=S)N(c3ccc(C#N)c(C(F)(F)F)c3)C(=O)C23CCC3)cc1F [RD162] | > 10 | > 10 | > 10 | > 10 | – | > 10 | – | > 10 | > 10 | – | – | 0 | 0 | 0 | 0 | 0 | 0 | 0 | 0 | 0.498 | 0 | 0.0464 | 0 | 1.42 | 0 | 0.215 | > 10 | > 10 | > 10 | > 10

Now from value to molecule, other results behind:

relative IC50 (BT-474 [13]; 4-OH-tamoxifen in medium 0 µM) [µM] | relative IC50 (MCF-7 Tam1 [14]) [µM] | relative IC50 (T-47D Tam1 [16]) [µM] | relative IC50 (T-47D Tam2 [18]) [µM] | relative IC50 (BT-474 Tam1 [19]) [µM] | relative IC50 (T-47D [20]; 4-OH-tamoxifen in medium 0 µM) [µM] | relative IC50 (T-47D [20]; 4-OH-tamoxifen in medium 1 µM) [µM] | relative IC50 (BT-474 [13]; 4-OH-tamoxifen in medium 1 µM) [µM] | relative IC50 (MCF-7 [21]; 4-OH-tamoxifen in medium 0 µM) [µM] | relative IC50 (MCF-7 [21]; 4-OH-tamoxifen in medium 1 µM) [µM] | relative IC50 (BT-474 Tam2 [22]) [µM] | SMILES | drug sensitivity score (ZR-75-1 Tam2 [1]) | drug sensitivity score (BT-474 [2]; 4-OH-tamoxifen in medium 0 µM) | drug sensitivity score (BT-474 [2]; 4-OH-tamoxifen in medium 1 µM) | drug sensitivity score (MCF-7 Tam1 [3]) | drug sensitivity score (ZR-75-1 [4]; 4-OH-tamoxifen in medium 0 µM) | drug sensitivity score (ZR-75-1 [4]; 4-OH-tamoxifen in medium 1 µM) | drug sensitivity score (T-47D Tam1 [5]) | drug sensitivity score (ZR-75-1 Tam1 [6]) | drug sensitivity score (BT-474 Tam2 [7]) | drug sensitivity score (T-47D Tam2 [8]) | drug sensitivity score (BT-474 Tam1 [9]) | drug sensitivity score (MCF-7 [10]; 4-OH-tamoxifen in medium 0 µM) | drug sensitivity score (MCF-7 [10]; 4-OH-tamoxifen in medium 1 µM) | drug sensitivity score (T-47D [11]; 4-OH-tamoxifen in medium 0 µM) | drug sensitivity score (T-47D [11]; 4-OH-tamoxifen in medium 1 µM) | relative IC50 (ZR-75-1 Tam2 [12]) [µM] | relative IC50 (ZR-75-1 [15]; 4-OH-tamoxifen in medium 0 µM) [µM] | relative IC50 (ZR-75-1 [15]; 4-OH-tamoxifen in medium 1 µM) [µM] | relative IC50 (ZR-75-1 Tam1 [17]) [µM]
1.27 | 1.79 | 0.797 | 1.53 | 1.59 | 2.22 | 2.6 | – | 3.66 | 1.1 | 0.619 | COC1=CC(c2cc3ccccc3[nH]2)=N/C1=C\c1[nH]c(C)cc1C [Obatoclax (GX15-070)] | 4.94 | 6.87 | 0.367 | 4.3 | 1.96 | 2.4 | 8.83 | 1.02 | 12.1 | 3.22 | 3.09 | 2 | 8.57 | 3.35 | 2.73 | 1.42 | 2.38 | 1.71 | –
> 100 | > 100 | > 100 | > 100 | > 100 | > 100 | > 100 | > 100 | > 100 | > 100 | > 100 | S=P(N1CC1)(N1CC1)N1CC1 [Thio-TEPA] | 0 | 0 | 0 | 0 | 0 | 0 | 0 | 0.276 | 0 | 0 | 0 | 0 | 0 | 0 | 0 | > 100 | > 100 | > 100 | –
> 5 | > 5 | > 5 | > 5 | > 5 | > 5 | > 5 | > 5 | > 5 | – | > 5 | C[C@@H]1CCN(C(=O)CC#N)C[C@@H]1N(C)c1ncnc2[nH]ccc12 [Tofacitinib (Tasocitinib)] | 0.0132 | 0 | 0 | 0 | 0 | 0 | 0 | 0 | 0 | 0 | 0 | 0 | 0.208 | 0 | 0 | – | > 5 | > 5 | > 5
> 10 | > 10 | > 10 | > 10 | – | > 10 | > 10 | > 10 | > 10 | > 10 | – | Clc1ccc(Nc2nnc(Cc3ccncc3)c3ccccc23)cc1 [Vatalanib] | 0 | 0 | 0 | 0 | 0 | 0 | 0 | 0 | 0.0042 | 0 | 0 | 0 | 0 | 0 | 0 | > 10 | > 10 | > 10 | > 10
